How the values were obtained:
Format in all cases: biochemical
[1] = target: T1, C-P4H1 (collagen prolyl 4-hydroxylase 1; P4HA1 alpha subunit) (Homo sapiens, UniProt P13674); assay: Succinate-Glo Hydroxylase assay, varied co-substrate concentration
T1 construct: Flag-tagged P4HA1 and P4HB co-expressed in HEK-293FT cells, purified C-P4H1 tetramer; with P4HB (protein disulfide isomerase, beta subunit)

[2] = target: T1, C-P4H1 (collagen prolyl 4-hydroxylase 1; P4HA1 alpha subunit); assay: Succinate-Glo Hydroxylase luminescence assay, dose response, with no-enzyme control
[3] = target: T1, C-P4H1 (collagen prolyl 4-hydroxylase 1; P4HA1 alpha subunit); assay: as above; remark: listed apart in the source

T1 sequence (P13674 18-534): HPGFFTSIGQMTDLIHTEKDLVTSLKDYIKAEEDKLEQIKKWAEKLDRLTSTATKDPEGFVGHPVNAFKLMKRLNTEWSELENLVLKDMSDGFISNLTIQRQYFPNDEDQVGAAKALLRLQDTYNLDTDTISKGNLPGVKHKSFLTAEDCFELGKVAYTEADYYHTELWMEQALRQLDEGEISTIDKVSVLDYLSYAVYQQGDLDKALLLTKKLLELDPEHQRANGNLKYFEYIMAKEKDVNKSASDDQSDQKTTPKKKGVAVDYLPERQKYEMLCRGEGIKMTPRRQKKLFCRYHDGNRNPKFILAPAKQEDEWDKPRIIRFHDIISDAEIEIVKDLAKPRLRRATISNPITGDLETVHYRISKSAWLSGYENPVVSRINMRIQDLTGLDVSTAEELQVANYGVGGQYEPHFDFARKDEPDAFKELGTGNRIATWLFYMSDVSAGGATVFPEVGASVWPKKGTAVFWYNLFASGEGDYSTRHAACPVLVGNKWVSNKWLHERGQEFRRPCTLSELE
T1 sequence (P07237 18-508 partner): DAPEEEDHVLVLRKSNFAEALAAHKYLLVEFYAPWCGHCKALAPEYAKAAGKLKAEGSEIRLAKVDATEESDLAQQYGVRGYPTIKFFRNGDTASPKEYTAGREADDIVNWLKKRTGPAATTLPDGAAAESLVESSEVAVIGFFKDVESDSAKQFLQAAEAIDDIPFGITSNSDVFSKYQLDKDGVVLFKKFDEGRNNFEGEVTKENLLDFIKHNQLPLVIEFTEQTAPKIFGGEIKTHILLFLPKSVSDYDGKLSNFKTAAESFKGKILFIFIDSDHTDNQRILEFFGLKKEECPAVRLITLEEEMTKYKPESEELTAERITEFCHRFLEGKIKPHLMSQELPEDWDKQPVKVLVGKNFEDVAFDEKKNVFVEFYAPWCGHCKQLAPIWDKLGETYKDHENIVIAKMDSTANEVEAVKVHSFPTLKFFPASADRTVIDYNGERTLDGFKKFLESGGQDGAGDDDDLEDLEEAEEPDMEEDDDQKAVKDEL

Row | Compound | Succinate-Glo Hydroxylase luminescence assay, dose response, with no-enzyme cont [2] | further results
1 | O=C(O)CCC(=O)C(=O)O [α-KG, α-ketoglutarate] |  | Succinate-Glo Hydroxylase assay, varied co-substrate concentration [1]: increased concentration of GPPG and α-KG induced luminescence assay in a dose-dependent manner
2 | Clc1ccccc1CN1CCc2sccc2C1 [Ticlopidine] | indicating that Silodosin and Ticlopidine specifically inhibited the C-P4H1 activity in vitro | 
3 | C[C@H](Cc1cc2c(c(C(N)=O)c1)N(CCCO)CC2)NCCOc1ccccc1OCC(F)(F)F [Silodosin] | Both drugs inhibited C-P4H1 activity in a dose-dependent manner (Figure 4B,D). | 
4 | CCOC(=O)c1ccc(O)c(O)c1 [DHB, ethyl-3,4-dihydroxybenzoic acid] |  | IC50 [3]: ~20 µM

From article PMC7554770, “Develop a High-Throughput Screening Method to Identify C-P4H1 (Collagen Prolyl 4-Hydroxylase 1) Inhibitors from FDA-Approved Chemicals” (International Journal of Molecular Sciences, 2020)
